Assay results from ChEMBL document CHEMBL1156052, “Discovery of 1-[4-(3-chlorophenylamino)-1-methyl-1H-pyrrolo[3,2-c]pyridin-7-yl]-1-morpholin-4-ylmethanone (GSK554418A), a brain penetrant 5-azaindole CB2 agonist for the treatment of chronic pain” (J Med Chem, 2009).
≈ marks a conversion by molar mass, not a printed value. Calls of active or inactive are those of the source. No cut-off for these calls is given here.

Columns and labels:
[1] = Oral bioavailability in Sprague-Dawley rat at 2 mg/kg after 0.8 hrs; assay type: ADME, organism-based; settings: in vivo
[2] = biological target: Alpha-2A adrenergic receptor (Homo sapiens) (UniProt P08913); test: Binding affinity to adrenergic alpha2 receptor at 1 uM
[3] = Ratio of drug level in brain to blood in rat 130 mg/kg, po after 5 hrs; assay type: ADME, organism-based; set-up: dose 130 mg/kg, route oral
[4] = biological target: Muscarinic acetylcholine receptor M2 (Homo sapiens) (UniProt P08172); test: Binding affinity to human muscarinic M2 receptor at 1 uM
[5] = biological target: Muscarinic acetylcholine receptor M3 (Homo sapiens) (UniProt P20309); test: Binding affinity to human muscarinic M3 receptor at 1 uM
[6] = biological target: Kappa-type opioid receptor (Homo sapiens) (UniProt P41145); test: Binding affinity to kappa opioid receptor at 1 uM
Cannabinoid receptor 1 = Cannabinoid receptor 1 (Homo sapiens, UniProt P21554); test: Agonist activity at human recombinant cannabinoid CB1 receptor expressed in MMY23 Saccharomyces cerevisiae assessed as degradation of FDGlu to fluorescein after 24 hrs by spectrofluorimetry relative to HU210; assay type: functional
[7] = Drug level in blood of rat joint model of chronic pain at 10 mg/kg, po BID for 5 days; assay type: ADME, organism-based; set-up: dose 10 mg/kg, route oral; settings: read-out: Drug uptake
[8] = biological target: Type-1 angiotensin II receptor (Homo sapiens) (UniProt P30556); test: Binding affinity to human AT1 receptor at 1 uM
[9] = Solubility in simulated intestinal fluid at pH 5; assay type: physicochemical
Rattus norvegicus [10] = test: Antihyperalgesic activity in complete Freund's adjuvant rat model of inflammatory pain assessed as reversal of hypersensitivity at 0.1 mg/kg, po administered as single dose measured after 1 hr; assay type: functional, organism-based; set-up: dose 0.1 mg/kg
[11] = biological target: Substance-K receptor (Homo sapiens) (UniProt P21452); test: Binding affinity to human NK2 receptor at 1 uM
[12] = biological target: Melanocortin receptor 4 (Homo sapiens) (UniProt P32245); test: Binding affinity to human MC4 receptor at 1 uM
[13] = biological target: D(1A) dopamine receptor (Homo sapiens) (UniProt P21728); test: Binding affinity to human dopamine D1 receptor at 1 uM
[14] = biological target: C-X-C chemokine receptor type 2 (Homo sapiens) (UniProt P25025); test: Binding affinity to human CXCR2 receptor at 1 uM
[15] = Intrinsic clearance in rat liver microsomes; assay type: ADME, Microsome
[16] = biological target: Beta-1 adrenergic receptor (Homo sapiens) (UniProt P08588); test: Binding affinity to human beta-1 adrenergic receptor at 1 uM
[17] = Binding affinity to GABA receptor at 1 uM
[18] = biological target: Histamine H1 receptor (Homo sapiens) (UniProt P35367); test: Binding affinity to human histamine H1 receptor at 1 uM
[19] = biological target: Adenosine receptor A3 (Homo sapiens) (UniProt P0DMS8); test: Binding affinity to human adenosine A3 receptor at 1 uM
Rattus norvegicus [20] = test: Antihyperalgesic activity in po dosed complete Freund's adjuvant rat model of inflammatory pain assessed as reduction of hypersensitivity administered as single dose; assay type: functional
Cytochrome P450 1A2 = Cytochrome P450 1A2 (Homo sapiens, UniProt P05177); test: Inhibition of CYP1A2; assay type: ADME
[21] = Drug level in blood of complete Freund's adjuvant rat model of inflammatory pain at 0.1 mg/kg, po administered as single dose measured after 1 hr; assay type: ADME, organism-based; set-up: dose 0.1 mg/kg, route oral; settings: read-out: Drug uptake
[22] = Drug level in rat blood at 130 mg/kg, po after 1 hr; assay type: ADME, organism-based; set-up: dose 130 mg/kg, route oral; settings: read-out: Drug uptake
[23] = Ratio of drug level in brain to blood in rat 130 mg/kg, po after 3 hrs; assay type: ADME, organism-based; set-up: dose 130 mg/kg, route oral
[24] = biological target: 5-hydroxytryptamine receptor 2A (Homo sapiens) (UniProt P28223); test: Binding affinity to 5HT2A receptor at 1 uM
[25] = Ratio of drug level in brain to blood in Sprague-Dawley rat at 0.4 mg/kg/hr, iv up to 12 hrs; assay type: ADME, organism-based; set-up: route intravenous
[26] = biological target: Galanin receptor type 2 (Homo sapiens) (UniProt O43603); test: Binding affinity to human GAL2 receptor at 1 uM
Rattus norvegicus [27] = test: Antihyperalgesic activity in complete Freund's adjuvant rat model of inflammatory pain assessed as reversal of hyperalgesia at 1 mg/kg, po administered as single dose in presence of 15 mg/kg, ip cannabinoid CB2 receptor antagonsit AM630; assay type: functional, organism-based
[28] = biological target: Endothelin-1 receptor (Homo sapiens) (UniProt P25101); test: Binding affinity to human ETA receptor at 1 uM
[29] = Drug level in Sprague-Dawley rat blood at 2 mg/kg, po after 0.8 hrs; assay type: ADME, organism-based; set-up: dose 2 mg/kg, route oral; settings: read-out: Drug uptake
[30] = Binding affinity to central benzodiazepine receptor at 1 uM
[31] = Drug level in blood of rat joint model of chronic pain at 3 mg/kg, po BID for 5 days; assay type: ADME, organism-based; set-up: dose 3 mg/kg, route oral; settings: read-out: Drug uptake
Cannabinoid receptor 2 = Cannabinoid receptor 2 (Homo sapiens, UniProt P34972); test: Agonist activity at human recombinant cannabinoid CB2 receptor expressed in CHOK1 cells assessed as forskolin-induced cAMP production at 20 uM by luciferase assay relative to HU210; assay type: functional, cell-based; settings: CHO-K1
[32] = biological target: Melatonin receptor type 1A (Homo sapiens) (UniProt P48039); test: Binding affinity to human ML1 receptor at 1 uM
[33] = Intrinsic clearance in human liver microsomes; assay type: ADME, Microsome
Rattus norvegicus [34] = test: Induction of hypothermia in rat at 130 mg/kg, po after 1 to 5 hrs; assay type: organism-based; set-up: dose 130 mg/kg, route oral; settings: in vivo
Cytochrome P450 2D6 = Cytochrome P450 2D6 (Homo sapiens, UniProt P10635); test: Inhibition of CYP2D6; assay type: ADME
[35] = biological target: Cholecystokinin receptor type A (Homo sapiens) (UniProt P32238); test: Binding affinity to human CCKA receptor at 1 uM
[36] = Efflux ratio of apparent permeability […] side of MDR1-expressing MDCK2 cells after 60 mins by liquid scintillation counting; assay type: ADME, cell-based, Canis lupus familiaris; settings: dog, mdck-ii, 1 h
[37] = biological target: Muscarinic acetylcholine receptor M1 (Homo sapiens) (UniProt P11229); test: Binding affinity to human muscarinic M1 receptor at 1 uM
[38] = Binding affinity to adrenergic alpha1 receptor at 1 uM
[39] = biological target: B2 bradykinin receptor (Homo sapiens) (UniProt P30411); test: Binding affinity to human bradykinin B2 receptor at 1 uM
[40] = biological target: 5-hydroxytryptamine receptor 1A (Homo sapiens) (UniProt P08908); test: Binding affinity to 5HT1A receptor at 1 uM
[41] = biological target: Muscarinic acetylcholine receptor M4 (Homo sapiens) (UniProt P08173); test: Binding affinity to human muscarinic M4 receptor at 1 uM
Rattus norvegicus [42] = test: Analgesic activity in rat joint model of chronic pain assessed as reversal of hypersensitivity at 10 mg/kg, po BID for 5 days; assay type: functional, organism-based; set-up: dose 10 mg/kg
Rattus norvegicus [43] = test: Antihyperalgesic activity in complete Freund's adjuvant rat model of inflammatory pain assessed as reversal of hyperalgesia at 1 mg/kg, po administered as single dose; assay type: functional, organism-based; set-up: dose 1 mg/kg
[44] = Drug level in rat blood at 130 mg/kg, po after 3 hrs; assay type: ADME, organism-based; set-up: dose 130 mg/kg, route oral; settings: read-out: Drug uptake
[45] = Ratio of drug level in brain to blood in rat 130 mg/kg, po after 1 hr; assay type: ADME, organism-based; set-up: dose 130 mg/kg, route oral

Sequence of B2 bradykinin receptor (Homo sapiens) (P30411 whole entry): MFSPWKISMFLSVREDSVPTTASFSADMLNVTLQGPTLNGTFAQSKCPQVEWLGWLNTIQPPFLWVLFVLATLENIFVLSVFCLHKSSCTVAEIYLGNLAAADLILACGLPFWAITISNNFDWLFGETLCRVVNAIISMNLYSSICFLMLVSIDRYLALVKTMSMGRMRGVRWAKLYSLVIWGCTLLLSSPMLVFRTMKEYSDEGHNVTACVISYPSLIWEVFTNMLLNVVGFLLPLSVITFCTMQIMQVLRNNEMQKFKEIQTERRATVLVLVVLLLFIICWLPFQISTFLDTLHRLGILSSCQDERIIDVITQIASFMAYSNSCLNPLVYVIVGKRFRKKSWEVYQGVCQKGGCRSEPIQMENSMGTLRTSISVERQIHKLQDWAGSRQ
Sequence of Cholecystokinin receptor type A (Homo sapiens) (P32238 whole entry): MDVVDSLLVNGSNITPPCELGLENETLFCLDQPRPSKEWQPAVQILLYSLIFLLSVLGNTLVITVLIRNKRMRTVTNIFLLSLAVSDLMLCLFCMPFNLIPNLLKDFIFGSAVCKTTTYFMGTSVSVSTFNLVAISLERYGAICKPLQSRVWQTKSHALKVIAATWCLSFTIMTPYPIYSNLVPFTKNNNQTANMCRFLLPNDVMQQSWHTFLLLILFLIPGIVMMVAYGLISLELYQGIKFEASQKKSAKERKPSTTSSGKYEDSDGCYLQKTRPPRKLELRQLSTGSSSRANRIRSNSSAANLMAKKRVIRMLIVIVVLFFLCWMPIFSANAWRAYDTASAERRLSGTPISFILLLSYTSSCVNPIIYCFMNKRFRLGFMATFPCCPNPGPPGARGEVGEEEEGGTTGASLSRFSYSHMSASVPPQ
Sequence of Melanocortin receptor 4 (Homo sapiens) (P32245 whole entry): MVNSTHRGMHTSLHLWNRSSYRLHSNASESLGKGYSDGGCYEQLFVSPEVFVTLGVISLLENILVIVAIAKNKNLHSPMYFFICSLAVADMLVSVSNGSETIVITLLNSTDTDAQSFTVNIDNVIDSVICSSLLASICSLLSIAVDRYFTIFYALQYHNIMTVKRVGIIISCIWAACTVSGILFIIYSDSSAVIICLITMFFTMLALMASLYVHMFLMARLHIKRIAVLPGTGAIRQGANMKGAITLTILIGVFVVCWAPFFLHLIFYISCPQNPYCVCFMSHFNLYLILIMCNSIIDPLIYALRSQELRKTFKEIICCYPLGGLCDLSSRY
Sequence of Muscarinic acetylcholine receptor M1 (Homo sapiens) (P11229 whole entry): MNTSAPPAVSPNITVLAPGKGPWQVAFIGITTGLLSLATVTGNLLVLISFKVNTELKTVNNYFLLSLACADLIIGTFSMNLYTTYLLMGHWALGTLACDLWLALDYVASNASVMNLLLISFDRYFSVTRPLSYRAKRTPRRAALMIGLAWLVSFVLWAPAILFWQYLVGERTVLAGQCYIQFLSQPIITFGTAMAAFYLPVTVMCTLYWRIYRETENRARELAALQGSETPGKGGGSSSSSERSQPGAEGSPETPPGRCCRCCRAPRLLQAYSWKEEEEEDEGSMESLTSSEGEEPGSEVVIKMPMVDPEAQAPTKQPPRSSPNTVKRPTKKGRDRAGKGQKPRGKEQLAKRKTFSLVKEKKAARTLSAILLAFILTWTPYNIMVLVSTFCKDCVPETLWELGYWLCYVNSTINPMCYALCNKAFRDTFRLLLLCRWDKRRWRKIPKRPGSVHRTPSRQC
Sequence of Melatonin receptor type 1A (Homo sapiens) (P48039 whole entry): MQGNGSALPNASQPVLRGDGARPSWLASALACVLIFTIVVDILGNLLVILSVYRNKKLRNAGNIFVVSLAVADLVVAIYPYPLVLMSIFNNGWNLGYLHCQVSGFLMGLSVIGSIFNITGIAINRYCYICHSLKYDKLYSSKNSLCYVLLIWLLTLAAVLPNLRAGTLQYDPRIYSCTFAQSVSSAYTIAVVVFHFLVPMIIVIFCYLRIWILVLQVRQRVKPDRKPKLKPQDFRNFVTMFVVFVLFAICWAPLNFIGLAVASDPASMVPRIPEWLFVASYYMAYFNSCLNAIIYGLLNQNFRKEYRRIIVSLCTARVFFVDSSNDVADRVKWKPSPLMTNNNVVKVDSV
Sequence of C-X-C chemokine receptor type 2 (Homo sapiens) (P25025 whole entry): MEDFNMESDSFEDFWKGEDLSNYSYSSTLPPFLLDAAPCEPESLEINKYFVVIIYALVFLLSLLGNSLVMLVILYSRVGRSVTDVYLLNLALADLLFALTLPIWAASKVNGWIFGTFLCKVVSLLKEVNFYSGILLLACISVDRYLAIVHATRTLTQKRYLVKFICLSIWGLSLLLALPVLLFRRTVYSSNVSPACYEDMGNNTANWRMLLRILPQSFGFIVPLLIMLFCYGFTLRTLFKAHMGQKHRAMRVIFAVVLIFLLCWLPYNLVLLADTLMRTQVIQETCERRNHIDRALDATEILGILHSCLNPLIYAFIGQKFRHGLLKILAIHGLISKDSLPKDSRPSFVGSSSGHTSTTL
Sequence of Muscarinic acetylcholine receptor M2 (Homo sapiens) (P08172 whole entry): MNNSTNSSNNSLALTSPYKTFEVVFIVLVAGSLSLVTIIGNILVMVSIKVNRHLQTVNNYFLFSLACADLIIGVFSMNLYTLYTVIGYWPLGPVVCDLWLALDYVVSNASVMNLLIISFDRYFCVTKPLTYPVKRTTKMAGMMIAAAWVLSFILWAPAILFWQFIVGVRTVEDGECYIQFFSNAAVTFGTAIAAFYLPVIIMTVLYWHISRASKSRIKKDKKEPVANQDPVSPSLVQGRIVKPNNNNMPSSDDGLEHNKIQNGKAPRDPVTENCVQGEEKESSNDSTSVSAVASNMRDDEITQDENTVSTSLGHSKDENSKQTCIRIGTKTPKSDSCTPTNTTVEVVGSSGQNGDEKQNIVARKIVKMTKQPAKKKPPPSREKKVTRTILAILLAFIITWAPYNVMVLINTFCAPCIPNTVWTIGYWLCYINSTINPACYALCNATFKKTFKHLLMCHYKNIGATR
Sequence of D(1A) dopamine receptor (Homo sapiens) (P21728 whole entry): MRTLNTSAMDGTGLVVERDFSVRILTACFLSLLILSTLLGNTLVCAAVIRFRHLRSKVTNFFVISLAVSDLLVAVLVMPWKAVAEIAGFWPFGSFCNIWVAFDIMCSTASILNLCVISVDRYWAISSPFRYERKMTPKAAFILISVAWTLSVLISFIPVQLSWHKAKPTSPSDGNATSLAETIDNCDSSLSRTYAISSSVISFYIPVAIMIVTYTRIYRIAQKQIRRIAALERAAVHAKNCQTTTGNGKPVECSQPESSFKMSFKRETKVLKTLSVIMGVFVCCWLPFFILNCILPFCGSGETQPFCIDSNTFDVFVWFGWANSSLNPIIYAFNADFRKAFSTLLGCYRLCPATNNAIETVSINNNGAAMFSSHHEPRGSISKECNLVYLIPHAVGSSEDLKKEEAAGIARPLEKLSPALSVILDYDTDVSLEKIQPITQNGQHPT
Sequence of Muscarinic acetylcholine receptor M4 (Homo sapiens) (P08173 whole entry): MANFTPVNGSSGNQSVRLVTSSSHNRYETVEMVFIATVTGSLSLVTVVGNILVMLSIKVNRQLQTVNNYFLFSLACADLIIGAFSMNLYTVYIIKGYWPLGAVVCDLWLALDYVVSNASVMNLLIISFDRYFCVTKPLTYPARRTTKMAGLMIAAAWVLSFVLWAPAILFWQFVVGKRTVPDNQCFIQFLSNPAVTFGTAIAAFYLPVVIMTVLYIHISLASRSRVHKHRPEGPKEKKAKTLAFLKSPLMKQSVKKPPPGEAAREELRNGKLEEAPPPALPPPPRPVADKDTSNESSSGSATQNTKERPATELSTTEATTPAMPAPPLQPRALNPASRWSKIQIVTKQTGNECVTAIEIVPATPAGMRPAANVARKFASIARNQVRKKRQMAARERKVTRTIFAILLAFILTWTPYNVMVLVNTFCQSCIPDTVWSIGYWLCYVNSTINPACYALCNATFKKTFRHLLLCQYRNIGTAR
Sequence of 5-hydroxytryptamine receptor 2A (Homo sapiens) (P28223 whole entry): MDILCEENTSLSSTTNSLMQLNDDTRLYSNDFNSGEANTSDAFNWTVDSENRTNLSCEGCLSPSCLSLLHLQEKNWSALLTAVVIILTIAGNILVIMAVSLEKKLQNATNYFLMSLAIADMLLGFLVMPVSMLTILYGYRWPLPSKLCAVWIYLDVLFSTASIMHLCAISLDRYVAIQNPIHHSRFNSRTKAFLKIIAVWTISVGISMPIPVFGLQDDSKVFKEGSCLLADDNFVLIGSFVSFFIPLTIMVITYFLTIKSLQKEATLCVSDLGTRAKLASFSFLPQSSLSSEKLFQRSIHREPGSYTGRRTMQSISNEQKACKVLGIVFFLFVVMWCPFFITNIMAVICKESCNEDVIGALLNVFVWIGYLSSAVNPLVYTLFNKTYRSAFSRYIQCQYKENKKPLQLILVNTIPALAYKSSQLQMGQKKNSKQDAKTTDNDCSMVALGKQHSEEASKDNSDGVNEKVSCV
Sequence of Histamine H1 receptor (Homo sapiens) (P35367 whole entry): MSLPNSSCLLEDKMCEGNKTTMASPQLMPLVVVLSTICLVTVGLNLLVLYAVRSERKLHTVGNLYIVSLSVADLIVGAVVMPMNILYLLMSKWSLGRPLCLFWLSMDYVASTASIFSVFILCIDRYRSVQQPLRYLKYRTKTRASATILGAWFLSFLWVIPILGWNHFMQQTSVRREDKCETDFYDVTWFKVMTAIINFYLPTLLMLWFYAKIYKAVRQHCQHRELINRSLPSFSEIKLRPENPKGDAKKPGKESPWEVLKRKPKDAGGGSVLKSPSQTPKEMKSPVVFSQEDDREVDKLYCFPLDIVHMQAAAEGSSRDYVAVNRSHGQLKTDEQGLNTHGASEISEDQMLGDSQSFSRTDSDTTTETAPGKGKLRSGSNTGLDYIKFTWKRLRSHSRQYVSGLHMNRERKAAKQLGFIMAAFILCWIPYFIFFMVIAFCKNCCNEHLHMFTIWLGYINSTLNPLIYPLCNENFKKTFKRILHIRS

For `Cn1ccc2c(Nc3cccc(Cl)c3)ncc(C(=O)N3CCOCC3)c21`, which bioavailability [1] is on record?
The bioavailability was 82%.

And the Activity [2]?
The Activity was 25%.

What about the Kp at 5 h [3] of the same compound?
The Kp at 5 h was 1.

And the Activity [4]?
The Activity was under 10%.

What about the Activity [5] of the same compound?
Its Activity is under 10%.

And the Activity [6]?
The Activity was 11%.

And the Efficacy (Cannabinoid receptor 1)?
The Efficacy was 88%.

And the concentration at 120 h [7]?
The concentration at 120 h was 6.1 µM.

And the Activity [8]?
The Activity was under 10%.

And the solubility [9]?
Its solubility is 590 µg/mL (≈ 1590 µM).

What about the Activity (Rattus norvegicus [10]) of the same compound?
Its Activity is “Active”.

What about the Activity [11] of the same compound?
The Activity was under 10%.

And the Activity [12]?
The Activity was under 10%.

What about the Activity [13] of the same compound?
Its Activity is under 10%.

What about the Activity [14] of the same compound?
Its Activity is under 10%.

What about the CLint scaled [15] of the same compound?
Its CLint scaled is under 0.8 mL/min/kg.

And the Activity [16]?
Its Activity is under 10%.

And the Activity [17]?
The Activity was under 10%.

And the Activity [18]?
The Activity was under 10%.

And the Activity [19]?
The Activity was under 10%.

And the ED50 (Rattus norvegicus [20])?
The ED50 was 0.02 mg/kg.

What about the IC50 (Cytochrome P450 1A2) of the same compound?
Its IC50 is over 100 µM.

And the concentration at 1 h [21]?
Its concentration at 1 h is 0.097 µM.

What about the concentration at 1 h [22] of the same compound?
Its concentration at 1 h is 8.6 µM.

What about the Kp at 3 h [23] of the same compound?
Its Kp at 3 h is 1.

And the Activity [24]?
Its Activity is 11%.

And the Kp at 12 h [25]?
The Kp at 12 h was 1.04.

What about the Activity [26] of the same compound?
The Activity was under 10%.

And the Activity (Rattus norvegicus [27])?
The Activity was “Active”.

What about the Activity [28] of the same compound?
The Activity was under 10%.

And the concentration at 0.8 h [29]?
The concentration at 0.8 h was 1.1 µM.

What about the Activity [30] of the same compound?
The Activity was under 10%.

And the concentration at 120 h [31]?
Its concentration at 120 h is 1.8 µM.

What about the Efficacy (Cannabinoid receptor 2) of the same compound?
Its Efficacy is 100%.

What about the Activity [32] of the same compound?
The Activity was under 10%.

What about the CLint scaled [33] of the same compound?
Its CLint scaled is under 0.6 mL/min/kg.

What about the Activity (Rattus norvegicus [34]) of the same compound?
The Activity was “Non-toxic”.

What about the IC50 (Cytochrome P450 2D6) of the same compound?
The IC50 was 21 µM.

And the Activity [35]?
Its Activity is under 10%.

And the Ratio [36]?
Its Ratio is 2.9.

What about the Activity [37] of the same compound?
The Activity was under 10%.

And the Activity [38]?
Its Activity is under 10%.

And the Activity [39]?
The Activity was under 10%.

And the Activity [40]?
The Activity was 24%.

What about the Activity [41] of the same compound?
Its Activity is under 10%.

And the Activity (Rattus norvegicus [42])?
The Activity was “Active”.

And the Activity (Rattus norvegicus [43])?
Its Activity is “Active”.

What about the concentration at 3 h [44] of the same compound?
Its concentration at 3 h is 10 µM.

What about the Kp at 1 h [45] of the same compound?
Its Kp at 1 h is 1.
